Assay results as given in PMC6199744, “Development of Chemical Proteomics for the Folateome and Analysis of the Kinetoplastid Folateome” (ACS Infectious Diseases, 2018).
Read-outs that look alike come from different tables or passages of the source.

How the values were obtained:
Assay type in all cases: binding
[1] = target: T1, HeLa cell extract proteins (Homo sapiens, UniProt O75352)
T1 construct: endogenous in cells; host or cells: HeLa cell extract
T1 sequence (O75352 1-247): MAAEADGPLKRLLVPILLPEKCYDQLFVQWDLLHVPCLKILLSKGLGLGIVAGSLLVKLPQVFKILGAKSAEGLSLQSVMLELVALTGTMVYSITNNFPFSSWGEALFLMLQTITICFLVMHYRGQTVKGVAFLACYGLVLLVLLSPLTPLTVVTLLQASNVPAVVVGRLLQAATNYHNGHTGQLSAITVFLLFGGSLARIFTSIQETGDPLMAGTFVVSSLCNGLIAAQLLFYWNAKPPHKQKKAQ

[2] = target: T2, HeLa cell extract proteins (Homo sapiens, UniProt P26599)
T2 construct: endogenous in cells; host or cells: HeLa cell extract

[3] = target: T3, HeLa cell extract proteins (Homo sapiens, UniProt P33992)
T3 construct: endogenous in cells; host or cells: HeLa cell extract
T3 sequence (P33992 1-734): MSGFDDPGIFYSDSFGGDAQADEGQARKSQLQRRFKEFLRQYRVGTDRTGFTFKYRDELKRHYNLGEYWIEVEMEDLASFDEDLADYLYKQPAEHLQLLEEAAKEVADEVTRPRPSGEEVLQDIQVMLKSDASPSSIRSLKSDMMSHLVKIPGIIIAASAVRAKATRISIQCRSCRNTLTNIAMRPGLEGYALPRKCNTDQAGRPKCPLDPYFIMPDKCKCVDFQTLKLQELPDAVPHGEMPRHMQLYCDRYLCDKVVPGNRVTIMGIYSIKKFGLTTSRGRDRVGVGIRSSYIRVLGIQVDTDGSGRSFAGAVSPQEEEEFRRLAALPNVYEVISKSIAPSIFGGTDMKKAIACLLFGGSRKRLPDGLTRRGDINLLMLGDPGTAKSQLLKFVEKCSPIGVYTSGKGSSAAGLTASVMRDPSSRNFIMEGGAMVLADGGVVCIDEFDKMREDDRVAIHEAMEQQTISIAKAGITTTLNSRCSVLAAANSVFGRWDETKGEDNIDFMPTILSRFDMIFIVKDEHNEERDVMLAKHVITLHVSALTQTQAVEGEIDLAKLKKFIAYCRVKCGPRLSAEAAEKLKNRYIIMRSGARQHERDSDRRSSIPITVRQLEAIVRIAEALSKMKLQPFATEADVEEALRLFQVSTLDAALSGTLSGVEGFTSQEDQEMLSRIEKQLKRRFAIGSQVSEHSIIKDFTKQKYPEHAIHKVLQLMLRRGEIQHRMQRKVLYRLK

[4] = target: T4, HeLa cell extract proteins (Homo sapiens, UniProt P07237)
T4 construct: endogenous in cells; host or cells: HeLa cell extract

[5] = target: T5, HeLa cell extract proteins (Homo sapiens, UniProt Q00839)
T5 construct: endogenous in cells; host or cells: HeLa cell extract

[6] = target: T6, HeLa cell extract proteins (Homo sapiens, UniProt Q9BQA1)
T6 construct: endogenous in cells; host or cells: HeLa cell extract

[7] = target: T7, HeLa cell extract proteins (Homo sapiens, UniProt P49773)
T7 construct: endogenous in cells; host or cells: HeLa cell extract

[8] = target: T8, HeLa cell extract proteins (Homo sapiens, UniProt P50395)
T8 construct: endogenous in cells; host or cells: HeLa cell extract
T8 sequence (P50395 1-445): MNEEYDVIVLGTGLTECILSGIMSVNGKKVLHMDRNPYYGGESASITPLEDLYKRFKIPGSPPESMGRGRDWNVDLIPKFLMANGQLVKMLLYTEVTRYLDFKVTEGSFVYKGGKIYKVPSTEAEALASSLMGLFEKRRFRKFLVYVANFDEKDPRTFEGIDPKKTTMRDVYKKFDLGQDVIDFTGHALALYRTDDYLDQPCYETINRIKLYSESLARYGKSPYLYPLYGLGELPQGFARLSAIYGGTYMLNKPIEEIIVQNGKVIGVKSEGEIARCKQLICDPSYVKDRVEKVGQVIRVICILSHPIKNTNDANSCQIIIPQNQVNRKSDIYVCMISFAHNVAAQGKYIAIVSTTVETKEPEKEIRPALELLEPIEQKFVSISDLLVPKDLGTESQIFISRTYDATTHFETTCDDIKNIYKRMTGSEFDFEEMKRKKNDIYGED

[9] = target: T9, HeLa cell extract proteins (Homo sapiens, UniProt P34932)
T9 construct: endogenous in cells; host or cells: HeLa cell extract

[10] = target: T10, HeLa cell extract proteins (Homo sapiens, UniProt Q6YN16)
T10 construct: endogenous in cells; host or cells: HeLa cell extract
T10 sequence (Q6YN16 1-418): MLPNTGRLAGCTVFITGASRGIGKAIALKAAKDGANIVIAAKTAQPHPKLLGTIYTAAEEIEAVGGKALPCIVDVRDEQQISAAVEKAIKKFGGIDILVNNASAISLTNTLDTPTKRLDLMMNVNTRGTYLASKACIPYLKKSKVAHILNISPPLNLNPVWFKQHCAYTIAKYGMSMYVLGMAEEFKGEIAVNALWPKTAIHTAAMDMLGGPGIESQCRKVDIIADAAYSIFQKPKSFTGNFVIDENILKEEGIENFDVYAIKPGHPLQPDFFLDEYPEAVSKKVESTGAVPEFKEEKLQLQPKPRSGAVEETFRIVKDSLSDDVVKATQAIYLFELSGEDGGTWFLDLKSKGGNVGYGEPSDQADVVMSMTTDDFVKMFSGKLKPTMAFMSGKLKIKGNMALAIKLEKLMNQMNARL

[11] = target: T11, HeLa cell extract proteins (Homo sapiens, UniProt O00330)
T11 construct: endogenous in cells; host or cells: HeLa cell extract
T11 sequence (O00330 54-501): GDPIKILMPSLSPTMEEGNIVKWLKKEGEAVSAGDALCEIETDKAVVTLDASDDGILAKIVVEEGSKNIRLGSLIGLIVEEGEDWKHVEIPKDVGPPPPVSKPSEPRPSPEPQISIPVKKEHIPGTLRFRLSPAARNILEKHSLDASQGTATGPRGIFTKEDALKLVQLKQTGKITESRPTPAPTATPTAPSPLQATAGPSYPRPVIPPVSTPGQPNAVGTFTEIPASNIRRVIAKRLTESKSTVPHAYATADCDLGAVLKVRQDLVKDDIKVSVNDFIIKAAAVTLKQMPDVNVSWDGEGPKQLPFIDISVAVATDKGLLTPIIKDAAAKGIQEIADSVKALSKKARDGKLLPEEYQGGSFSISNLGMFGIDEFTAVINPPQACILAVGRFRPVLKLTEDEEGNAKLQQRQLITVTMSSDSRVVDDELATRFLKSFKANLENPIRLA

[12] = target: T12, HeLa cell extract proteins (Homo sapiens, UniProt P10809)
T12 construct: endogenous in cells; host or cells: HeLa cell extract

[13] = HeLa, protein PDHX (PYRUVATE DEH[…] X COMPONENT, MIT[…])

T6 sequence (Q9BQA1 whole entry): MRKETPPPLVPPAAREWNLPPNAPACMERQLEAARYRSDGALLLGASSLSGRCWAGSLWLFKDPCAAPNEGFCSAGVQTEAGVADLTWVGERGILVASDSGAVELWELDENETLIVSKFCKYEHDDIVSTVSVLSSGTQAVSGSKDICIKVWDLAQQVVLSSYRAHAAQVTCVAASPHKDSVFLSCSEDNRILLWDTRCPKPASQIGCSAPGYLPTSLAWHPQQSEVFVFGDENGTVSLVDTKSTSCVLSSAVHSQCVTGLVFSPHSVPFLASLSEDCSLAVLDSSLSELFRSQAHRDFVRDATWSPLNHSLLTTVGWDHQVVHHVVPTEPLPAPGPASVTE
T2 sequence (P26599 whole entry): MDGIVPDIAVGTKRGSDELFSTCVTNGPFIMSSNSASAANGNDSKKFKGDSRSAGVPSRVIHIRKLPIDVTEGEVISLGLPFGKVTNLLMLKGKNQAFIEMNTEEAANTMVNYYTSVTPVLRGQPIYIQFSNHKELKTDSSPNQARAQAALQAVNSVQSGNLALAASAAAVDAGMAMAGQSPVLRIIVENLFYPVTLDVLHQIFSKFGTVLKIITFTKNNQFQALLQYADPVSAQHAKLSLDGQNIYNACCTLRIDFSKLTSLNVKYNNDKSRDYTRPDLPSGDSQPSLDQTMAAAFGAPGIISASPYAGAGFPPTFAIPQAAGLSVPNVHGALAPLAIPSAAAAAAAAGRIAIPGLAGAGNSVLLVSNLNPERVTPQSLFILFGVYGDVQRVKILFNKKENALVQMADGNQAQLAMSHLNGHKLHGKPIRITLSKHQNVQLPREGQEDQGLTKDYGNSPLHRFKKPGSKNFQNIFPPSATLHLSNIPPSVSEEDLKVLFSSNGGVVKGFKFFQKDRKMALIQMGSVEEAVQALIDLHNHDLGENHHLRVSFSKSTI
T12 sequence (P10809 27-573): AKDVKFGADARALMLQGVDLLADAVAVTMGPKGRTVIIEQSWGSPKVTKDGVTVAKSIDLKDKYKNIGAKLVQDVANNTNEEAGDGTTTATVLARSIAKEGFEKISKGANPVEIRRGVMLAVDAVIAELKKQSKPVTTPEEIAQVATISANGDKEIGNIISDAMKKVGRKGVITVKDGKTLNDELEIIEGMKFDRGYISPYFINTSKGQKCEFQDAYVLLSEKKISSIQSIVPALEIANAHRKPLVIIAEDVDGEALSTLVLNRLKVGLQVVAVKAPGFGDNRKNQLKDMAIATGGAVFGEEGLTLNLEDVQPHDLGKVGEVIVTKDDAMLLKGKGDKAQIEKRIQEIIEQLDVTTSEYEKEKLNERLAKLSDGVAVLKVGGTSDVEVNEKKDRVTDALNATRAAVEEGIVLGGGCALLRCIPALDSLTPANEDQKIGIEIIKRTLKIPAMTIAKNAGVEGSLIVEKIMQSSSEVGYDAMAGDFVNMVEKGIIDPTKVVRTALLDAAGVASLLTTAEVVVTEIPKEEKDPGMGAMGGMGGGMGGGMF
T9 sequence (P34932 whole entry): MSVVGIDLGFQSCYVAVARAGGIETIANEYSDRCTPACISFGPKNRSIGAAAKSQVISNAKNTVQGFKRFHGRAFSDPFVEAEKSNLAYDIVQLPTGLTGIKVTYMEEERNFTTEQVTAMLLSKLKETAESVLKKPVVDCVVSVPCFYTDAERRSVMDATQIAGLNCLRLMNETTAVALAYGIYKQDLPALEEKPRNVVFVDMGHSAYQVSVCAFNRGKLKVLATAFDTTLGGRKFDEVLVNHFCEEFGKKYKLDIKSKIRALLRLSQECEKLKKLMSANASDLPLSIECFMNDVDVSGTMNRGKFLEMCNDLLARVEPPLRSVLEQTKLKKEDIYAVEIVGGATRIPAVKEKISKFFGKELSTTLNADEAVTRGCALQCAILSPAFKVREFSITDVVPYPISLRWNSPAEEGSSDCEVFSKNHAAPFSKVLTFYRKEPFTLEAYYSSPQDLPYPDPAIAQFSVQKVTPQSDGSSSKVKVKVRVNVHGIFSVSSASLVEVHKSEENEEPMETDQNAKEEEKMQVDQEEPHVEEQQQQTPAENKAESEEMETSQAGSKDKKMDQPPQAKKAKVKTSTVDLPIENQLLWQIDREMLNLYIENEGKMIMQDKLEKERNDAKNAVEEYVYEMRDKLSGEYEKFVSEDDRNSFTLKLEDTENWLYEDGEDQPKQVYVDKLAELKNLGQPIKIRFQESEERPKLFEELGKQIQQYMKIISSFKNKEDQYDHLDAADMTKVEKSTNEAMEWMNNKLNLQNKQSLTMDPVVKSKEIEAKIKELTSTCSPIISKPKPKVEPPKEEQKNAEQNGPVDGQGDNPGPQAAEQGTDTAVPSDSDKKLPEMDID
T5 sequence (Q00839 whole entry): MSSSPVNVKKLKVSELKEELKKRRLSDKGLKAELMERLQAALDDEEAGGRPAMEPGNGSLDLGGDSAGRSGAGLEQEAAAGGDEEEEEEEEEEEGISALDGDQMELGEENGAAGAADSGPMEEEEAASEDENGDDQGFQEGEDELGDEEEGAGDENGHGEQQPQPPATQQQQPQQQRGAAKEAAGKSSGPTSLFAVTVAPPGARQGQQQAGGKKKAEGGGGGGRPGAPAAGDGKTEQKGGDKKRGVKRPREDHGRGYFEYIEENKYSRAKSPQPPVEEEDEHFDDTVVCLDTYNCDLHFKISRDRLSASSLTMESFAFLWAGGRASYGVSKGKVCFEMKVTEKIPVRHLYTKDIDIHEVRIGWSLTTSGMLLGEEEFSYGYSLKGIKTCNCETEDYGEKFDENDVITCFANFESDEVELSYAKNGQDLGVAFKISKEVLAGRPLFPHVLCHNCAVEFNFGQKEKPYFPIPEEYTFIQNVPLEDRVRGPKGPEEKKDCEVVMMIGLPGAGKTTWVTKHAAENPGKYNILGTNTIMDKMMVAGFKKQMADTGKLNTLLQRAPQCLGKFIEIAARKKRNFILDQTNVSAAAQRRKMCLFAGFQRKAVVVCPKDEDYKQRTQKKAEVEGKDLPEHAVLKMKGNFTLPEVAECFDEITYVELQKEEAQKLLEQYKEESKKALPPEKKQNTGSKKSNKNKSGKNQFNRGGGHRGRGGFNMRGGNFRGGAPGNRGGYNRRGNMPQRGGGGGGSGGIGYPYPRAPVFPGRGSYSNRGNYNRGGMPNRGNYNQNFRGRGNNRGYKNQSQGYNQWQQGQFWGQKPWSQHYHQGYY
T4 sequence (P07237 18-508): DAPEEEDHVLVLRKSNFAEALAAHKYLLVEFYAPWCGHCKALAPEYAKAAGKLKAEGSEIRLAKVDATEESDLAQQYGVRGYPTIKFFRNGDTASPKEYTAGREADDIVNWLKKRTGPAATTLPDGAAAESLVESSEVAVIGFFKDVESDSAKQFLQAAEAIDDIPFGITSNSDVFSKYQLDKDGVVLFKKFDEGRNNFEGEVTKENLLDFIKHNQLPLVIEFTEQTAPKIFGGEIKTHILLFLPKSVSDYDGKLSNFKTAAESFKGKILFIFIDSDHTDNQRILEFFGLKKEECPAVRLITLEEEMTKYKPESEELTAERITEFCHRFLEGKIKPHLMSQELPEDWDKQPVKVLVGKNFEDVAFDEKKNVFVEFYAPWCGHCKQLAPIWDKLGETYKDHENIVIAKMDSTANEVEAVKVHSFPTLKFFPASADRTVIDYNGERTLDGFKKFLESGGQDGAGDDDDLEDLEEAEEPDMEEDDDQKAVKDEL
T7 sequence (P49773 whole entry): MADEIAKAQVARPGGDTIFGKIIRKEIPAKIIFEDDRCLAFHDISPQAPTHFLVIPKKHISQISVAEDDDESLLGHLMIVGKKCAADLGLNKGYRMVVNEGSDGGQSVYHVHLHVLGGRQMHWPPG

Structure (SMILES) | fold changes relative to vehicle control ([1]; protein MPDU1, HeLa) | fold changes relative to vehicle control ([2]; protein PTBP1, HeLa) | fold changes relative to vehicle control ([3]; protein MCM5, HeLa) | fold changes relative to vehicle control ([4]; protein P4HB, HeLa) | fold changes relative to vehicle control ([5]; HeLa, protein HNRNPU) | fold changes relative to vehicle control ([6]; protein WDR77, HeLa) | fold changes relative to vehicle control ([7]; HeLa, protein HINT1) | fold changes relative to vehicle control ([8]; protein GDI2, HeLa) | fold changes relative to vehicle control ([9]; protein HSPA4, HeLa) | fold changes relative to vehicle control ([10]; protein HSDL2, HeLa) | fold changes relative to vehicle control ([11]; protein PDHX, HeLa) | fold changes relative to vehicle control ([12]; protein HSPD1, HeLa) | fold changes relative to vehicle control ([1]; HeLa, protein MPDU1) | fold changes relative to vehicle control ([2]; HeLa, protein PTBP1) | fold changes relative to vehicle control ([3]; HeLa, protein MCM5) | fold changes relative to vehicle control ([4]; HeLa, protein P4HB) | fold changes relative to vehicle control ([5]; protein HNRNPU, HeLa) | fold changes relative to vehicle control ([6]; HeLa, protein WDR77) | fold changes relative to vehicle control ([7]; HeLa, captured protein HINT1) | fold changes relative to vehicle control ([9]; HeLa, protein HSPA4) | also measured
Nc1nc2cccc(-c3ccccc3)c2n1Cc1ccc(Cl)c(Cl)c1 [compound 3] | 1.05 | 1.08 | 0.93 | 1 | 0.96 | 1 | 1.17 | 0.72 | 0.92 | 0.96 | 1.12 | 1.03 | – | – | – | – | – | – | – | – | –
Nc1nc2[nH]cc(CCc3ccc(C(=O)N[C@@H](CCC(=O)O)C(=O)O)cc3)c2c(=O)[nH]1 [PTX, pemetrexed] | – | – | – | – | – | – | – | – | – | – | – | – | – | – | – | – | – | – | – | – | fold changes relative to vehicle control [1]: 1; fold changes relative to vehicle control [2]: 0.95; fold changes relative to vehicle control [3]: 1.12; fold changes relative to vehicle control [4]: 1.03; fold changes relative to vehicle control [5]: 0.92; fold changes relative to vehicle control [6]: 0.81; fold changes relative to vehicle control [7]: 0.77; fold changes relative to vehicle control [8]: 0.9; fold changes relative to vehicle control [9]: 1.09; fold changes relative to vehicle control [10]: 0.96; fold changes relative to vehicle control [11]: 0.98; fold changes relative to vehicle control [12]: 1.14
Nc1nc2c(c(=O)[nH]1)N(C=O)C(CNc1ccc(C(=O)N[C@@H](CCC(=O)O)C(=O)O)cc1)CN2 (stereo partly drawn) [LEU, leucovorin] | – | – | – | – | – | – | – | 0.93 | – | – | – | – | 0.93 | 0.98 | 0.94 | 0.96 | 0.8 | 0.83 | 1.12 | 0.97 | fold changes relative to vehicle control ([10]; HeLa, protein HSDL2): 0.96; fold changes relative to vehicle control [11, 13]: 1.05; fold changes relative to vehicle control ([12]; HeLa, protein HSPD1): 1.12
CCCCCCOc1cccc(Cc2cnc(N)nc2N)c1 [compound 2] | 0.89 | 1.55 | 1.41 | 1.79 | 1.2 | 1.33 | 0.99 | 1.81 | 2.1 | 1.23 | 0.43 | 1.71 | – | – | – | – | – | – | – | – | –
NCCOCCOCC(=O)Nc1nc2ncc(CNc3ccc(C(=O)NC(CCC(=O)O)C(=O)O)cc3)nc2c(=O)[nH]1 (stereo not drawn) [compound 6] | – | – | – | – | – | – | – | 1.03 | – | – | – | – | 1.08 | 1.03 | 1.03 | 1.19 | 1.18 | 1.03 | 1.33 | 1.26 | fold changes relative to vehicle control ([10]; HeLa, protein HSDL2): 1.04; fold changes relative to vehicle control ([11]; HeLa, protein PDHX (PYRUVATE DEHYDROGENASE PROTEIN X COMPONENT, MITOCHONDRIAL PRECURSOR)): 0.92; fold changes relative to vehicle control ([12]; HeLa, protein HSPD1): 1.21
CCCCCCOc1ccc(Cc2cnc(N)nc2N)cc1 [compound 1] | 1.04 | 0.97 | 1.04 | 1.31 | 0.88 | 1.12 | 1.03 | 1.06 | 1.19 | 1.11 | 1 | 1.32 | – | – | – | – | – | – | – | – | –
NCCCNc1ccc(C(=O)NC(CCC(=O)O)C(=O)O)cc1 (stereo not drawn) [compound 7] | – | – | – | – | – | – | – | 1.02 | – | – | – | – | 0.99 | 1.05 | 0.98 | 0.92 | 1.04 | 0.96 | 1.33 | 0.92 | fold changes relative to vehicle control ([10]; HeLa, protein HSDL2): 1.02; fold changes relative to vehicle control [11, 13]: 1.02; fold changes relative to vehicle control ([12]; HeLa, protein HSPD1): 1
